In ChEMBL document CHEMBL1275552, “In vitro activities at pH 5.0 and pH 7.0 and in vivo efficacy of flucytosine against Aspergillus fumigatus” (Antimicrob Agents Chemother, 2008):
Values after ≈ are worked out from the molar mass of the structure shown. Active and inactive are the calls of the source. The rule behind the calls is not given here.

Tests used:
[1] = test system: Aspergillus fumigatus; experiment: Antifungal activity against flucytosine-susceptible Aspergillus fumigatus isolate AZN 58 infected in CD-1 mouse assessed as prolongation of survival at 100 mg/kg administered every 12 hrs; format: functional, organism-based; set-up: dose 100 mg/kg
[2] = test system: Aspergillus fumigatus; experiment: Antifungal activity against flucytosine-resistant Aspergillus fumigatus isolate AZN 58 infected in CD-1 mouse at 100 mg/kg administered every 6 hrs; format: functional, organism-based; set-up: dose 100 mg/kg
[3] = test system: Aspergillus fumigatus; experiment: Antifungal activity against flucytosine-resistant Aspergillus fumigatus isolate AZN 58 infected in CD-1 mouse at 200 mg/kg administered every 12 hrs; format: functional, organism-based; set-up: dose 200 mg/kg
[4] = test system: Aspergillus fumigatus; experiment: Antifungal activity against flucytosine-susceptible Aspergillus fumigatus isolate AZN 58 infected in CD-1 mouse assessed as prolongation of survival at 200 mg/kg administered every 12 hrs; format: functional, organism-based; set-up: dose 200 mg/kg
[5] = test system: Aspergillus sp.; experiment: Antifungal activity against Aspergillus sp. by broth microdilution method; format: functional
[6] = Half life in human; format: ADME, organism-based; conditions: in vivo
[7] = test system: Aspergillus fumigatus; experiment: Antifungal activity against flucytosine-susceptible Aspergillus fumigatus isolate AZN 58 infected in CD-1 mouse assessed as prolongation of survival at 100 mg/kg administered every 6 hrs; format: functional, organism-based; set-up: dose 100 mg/kg
[8] = test system: Aspergillus fumigatus; experiment: Antifungal activity against flucytosine-resistant Aspergillus fumigatus isolate AZN 58 infected in CD-1 mouse at 100 mg/kg administered every 12 hrs; format: functional, organism-based; set-up: dose 100 mg/kg
[9] = test system: Aspergillus fumigatus; experiment: Antifungal activity against Aspergillus fumigatus at pH 5.0 by broth microdilution method; format: functional
[10] = test system: Aspergillus fumigatus; experiment: Antifungal activity against flucytosine-resistant Aspergillus fumigatus isolate AZN 58 infected in CD-1 mouse at 200 mg/kg administered every 6 hrs; format: functional, organism-based; set-up: dose 200 mg/kg
[11] = test system: Aspergillus fumigatus; experiment: Antifungal activity against flucytosine-susceptible Aspergillus fumigatus isolate AZN 58 infected in CD-1 mouse assessed as prolongation of survival at 200 mg/kg administered every 6 hrs; format: functional, organism-based; set-up: dose 200 mg/kg
[12] = test system: Aspergillus fumigatus; experiment: Antifungal activity against Aspergillus fumigatus at pH 7.0 by broth microdilution method; format: functional
[13] = Half life in CD-1 mouse at 800 mg/kg; format: ADME, organism-based; set-up: dose 800 mg/kg; conditions: in vivo

Nc1nc(=O)[nH]cc1F [FLUCYTOSINE]
Activity [1]: Active
Activity [2]: inactive
Activity [3]: inactive
Activity [4]: Active
MIC [5]: > 64 µg/mL
half-life [6]: 2.5 h
Activity [7]: Active
Activity [8]: inactive
MIC [9]: 0.125 µg/mL (≈ 0.968 µM)
Activity [10]: inactive
Activity [11]: Active
MIC [12]: 128 µg/mL (≈ 992 µM)
half-life [13]: 0.5 h
